Laboratory results as given in publication PMC10017709, “Structural basis of selective cannabinoid CB2 receptor activation” (Nature Communications, 2023).

What was measured:
[1] = test system: cisplatin-induced nephropathy, CB2R knockout mice (CB2R−/−); assay: Cisplatin-induced nephropathy in CB2R knockout mice; type: in vivo
Procedure: (§1) Ten to twelve-week-old male/female C57BL/6J mice were obtained from The Jackson Laboratory (Bar Harbor, ME, USA). CB2R knockout mice (CB2R^−/−) and their wild-type littermates (CB2R^+/+) were developed as described previously and had been backcrossed to a C57BL/6J background. All animals were kept in a temperature-controlled environment (20–22 °C) with a 12 h light–dark cycle and were always allowed free access to food and water. All animal experiments reported in this manuscript complied with the National Institutes of Health “Guide for the Care and Use of Laboratory Animals” (NIH publication 86–23 revised 1985) and were approved by the Institutional Animal Care and Use Committee of the National Institute on Alcohol Abuse and Alcoholism (Bethesda, MD).
(§2) The well-established model of cisplatin-induced nephropathy was used[63]. Mice (CB2R^−/− and CB2R^+/+) were sacrificed 72 h after a single injection of cisplatin (cis-diamine platinum (II) dichloride (Sigma#P4394) 25 mg/kg i.p.; freshly dissolved in physiological saline) by cervical dislocation under deep anesthesia with 5% isoflurane, for collection of blood and tissue samples. LEI-102 was given i.p. or by oral gavage (p.o.) at 0.3, 3.0, and 10 mg/kg every day, starting 1.5 h before the cisplatin exposure. The drug was dissolved in a vehicle of DMSO:Tween 80:saline, 1:1:18. After administration of LEI‐102, mice were killed by cervical dislocation under deep anesthesia with 5% isoflurane, for collection of blood and tissue samples at the time described in the figure. The tetrad assay in mice has previously been described in detail.
(§3) Markers of kidney dysfunction (BUN and CREA), histopathology (PAS staining), immunostaining or ELISA for 3-nitrotyrosine (3-NT; Cell Biolabs #STA-305) and 4-hydroxynonenal (4-HNE; Cell Biolabs#STA-838), and real-time PCR (Primers from Qiagen, SYBER Green Vita Scientific#MEIF01301, High-Capacity cDNA Reverse Transcription Kit, Thermo Fisher Scientific#4368813) for inflammatory cytokines were performed as previously described. Tubular damage scores were determined based on the percentage of tubules showing epithelial necrosis where 0= normal; 1, <10%; 2, 10–25%; 3, 26–75%; 4, >75%. Tubular necrosis was defined as the loss of the proximal tubular brush border, blebbing of apical membranes, tubular epithelial cell detachment from the basement membrane, or intraluminal aggregation of cells and proteins. The morphometric examination was performed in a blinded manner. Ten fields were scored from each mouse kidneys at 200× magnification, and average scores were determined for each mouse. For final quantification graph, average tubular damage scores of six mice/group were plotted.

[2] = test system: cisplatin-induced nephropathy; assay: Cisplatin-induced nephropathy in wild type mice; type: in vivo, C57BL/6J mice; conditions: for BUN / CREA: 72 h; for BUN / CREA / HNE (HNE adducts, ELISA) / NT (protein nitration, ELISA) / IL1b expression (real-time PCR) / TNFa expression (real-time PCR): mean, n = 6; for HNE (HNE adducts, ELISA) / NT (protein nitration, ELISA) / IL1b expression (real-time PCR) / TNFa expression (real-time PCR): kidney; for HNE (HNE adducts, ELISA) / NT (protein nitration, ELISA): vehicle mean 1.0; for IL1b expression (real-time PCR) / TNFa expression (real-time PCR): vehicle mean 1.00
Procedure: as §1, §2, §3

[3] = Cisplatin + LEI-102 10 mg/kg, KO, mean, n = 6

CC(C)CN1C(=O)CN(Cc2ccc(-c3ccc(F)c(CNC4CCOCC4)n3)cc2)C1=O [LEI-102, 1-(4-(5-fluoro-6-(((tetrahydro-2H-pyran-4-yl)amino)methyl)pyridin-2-yl)benzyl)-3-isobutylimidazolidine-2,4-dione] was tested, and the “protective effects against cisplatin-induced renal dysfunction, tubular damage, histopathological injury and oxidative-nitrative stress” value ([1]; CB2R knockout mice) was “abolished”, the BUN [1, 3] was 312 and the CREA [1, 3] was 3.9. It also gave a Tubular damage score [1, 3] of 2.88, a BUN ([2]; Cis + LEI-102 i.p. 0.3 mg/kg every day) of 143.0 mg/dL and a CREA ([2]; Cis + LEI-102 i.p. 0.3 mg/kg) of 1.6 mg/dL. The BUN ([2]; Cis + LEI-102 i.p. 3 mg/kg) was 32.8 mg/dL, the CREA ([2]; Cis + LEI-102 i.p. 3 mg/kg) was 0.7 mg/dL and the BUN ([2]; Cis + LEI-102 i.p. 10 mg/kg) was 24.8 mg/dL. It also gave a CREA ([2]; Cis + LEI-102 i.p. 10 mg/kg) of 0.6 mg/dL, a BUN ([2]; Cis + LEI-102 p.o. 3 mg/kg) of 53.5 mg/dL and a CREA ([2]; Cis + LEI-102 p.o. 3 mg/kg) of 1.0 mg/dL. For the same compound, the BUN ([2]; Cis + LEI-102 p.o. 10 mg/kg) was 31.8 mg/dL, the CREA ([2]; Cis + LEI-102 p.o. 10 mg/kg) was 0.53 mg/dL and the “lipid peroxidation and protein nitration in kidney” value ([2]; LEI-102 10 mg/kg by i.p. or p.o.) was “decreased”. For the same compound, the “functional markers of cisplatin-induced kidney injury (serum creatinine, blood urea nitrogen)” value ([2]; LEI-102 p.o. or i.p., 72 h after cisplatin 25 mg/kg i.p.) was “dose-dependent attenuation”, the “pro-inflammatory cytokines TNFα and IL1β elevated by cisplatin-induced injury” value ([2]; LEI-102 treated mice) was “attenuated” and the “HNE (HNE adducts, ELISA)” value ([2]; Cis + LEI-102 i.p. 10 mg/kg) was 2.7. For the same compound, the “NT (protein nitration, ELISA)” value ([2]; Cis + LEI-102 i.p. 10 mg/kg) was 2.4, the “IL1b expression (real-time PCR)” value ([2]; Cis + LEI-102 i.p. 10 mg/kg) was 1.90 and the “TNFa expression (real-time PCR)” value ([2]; Cis + LEI-102 i.p. 10 mg/kg) was 1.59. The “HNE (HNE adducts, ELISA)” value ([2]; Cis + LEI-102 p.o. 10 mg/kg) was 2.4, the “NT (protein nitration, ELISA)” value ([2]; Cis + LEI-102 p.o. 10 mg/kg) was 2.8 and the “IL1b expression (real-time PCR)” value ([2]; Cis + LEI-102 p.o. 10 mg/kg) was 2.71. For the same compound, the “TNFa expression (real-time PCR)” value ([2]; Cis + LEI-102 p.o. 10 mg/kg) was 1.42.
